Entries after “also recorded” stand apart in the source; their conditions may differ.

In data set [1] the target is ghrelin receptor crystallization construct (hGHSR29-346 (T130K/N188Q)). The data set is described as follows: [3H]-Compound 21 saturation binding, crystallization construct. The arrangement: species or system human. Conditions: Sf9 membranes, 3.125–50 nM radioligand, on ice 1 h, pH7.5; mean ± s.d. As to the method:
(§1) The homogenate was ultracentrifuged at 100,000×g for 30 min at 4 °C, and the pellet was washed twice with cold homogenization buffer. The protein concentration was determined using BCA Protein Assay (Thermo Fisher). […] Bound [^3H]-Compound 21 was quantified with an AccuFLEX LCS-8000 liquid scintillation counter (Hitachi) after addition of 2.5 ml of Clear-Sol liquid scintillation cocktail (Nacalai Tesque). Data were analyzed by nonlinear curve-fitting using the program GraphPad Prism 5. Binding data are reported as means ± s.d.

Data set [2] deals with T1, ghrelin receptor (Homo sapiens, UniProt Q92847).
T1 construct: expressed in transfected cells; host or cells: HEK293 cells (membrane preparations, transient expression)
As to the kind of experiment: Crystal structure of bRIL-hGHSR-Fab 7881-Compound 21 complex. The settings on record: 3.3 Å resolution, PDB 6KO5. As to the method: The complex was purified by gel filtration using Superdex 200 Increase 10/300 GL. […] In the mixture, the protein solution:lipid mass ratio was fixed at 2:3 using the twin-syringe mixing method. Crystallization experiments were carried out in 96-well glass sandwich plates (Molecular Dimensions) on an NT8-LCP crystallization robot (Formulatrix) using a 30 nl protein solution cubic phase overlaid with 600 nl precipitant solution, and incubated at 20 °C. The best crystals were obtained from precipitant solution containing 100 mM MES (pH 6.6–7.0), 400 mM potassium acetate, and 36–40% polyethylene glycol (PEG) 300. The crystals were collected within 2 weeks using mesh grid loops (WAKENBTECH) and flash-cooled in liquid nitrogen. Initial crystals were obtained in hanging drops by vapor diffusion at 20 °C from the precipitant solution containing 100 mM bicine (pH 9.0), 100 mM sodium chloride, and 30% PEG550MME.
All diffraction datasets were collected at SPring-8 BL32XU[42] using a micro-focused X-ray beam. Loop-harvested microcrystals were identified using raster scan and analysis by SHIKA[43]. […] The structure was determined by molecular replacement with the program PHASER[47], using the receptor portions of the antagonist-bound orexin receptor (PDB ID: 4S0V), bRIL (PDB ID: 1M6T), and the Fab 7881 antibody (this study, ID: 6KS2) as the search models. […]

In the next data set the target is T2, ghrelin receptor WT (Homo sapiens, UniProt Q92847, N188Q).
T2 construct: Full-length human ghrelin receptor was used for the mutagenesis; expressed in transfected cells
The data set is described as follows: [3H]-Compound 21 saturation binding, WT. Conditions: HEK293 membranes, on ice 1 h, pH7.5; mean ± s.d., three independent experiments. The protocol: as §1

In data set [3] the test system is ghrelin receptor WT (hGHSR WT). As to the kind of experiment: Luciferase assay, basal (constitutive) activity in presence of Compound 21. Format: cell-based, human. The settings on record: CHO cells, 10^-10 to 10^-6 M Compound 21, 1 h; n=5–6. As to the method:
Transfections were performed using the FuGENE HD transfection reagent (Promega). The next day, the transfected cells were collected and plated into 96-well white microplates (Corning) at a density of 2.5 × 10^4 cells/well. After a 1-day incubation, the luciferase activities were determined using Dual-Luciferase Reporter Assay System (Promega). […] All firefly luciferase activities were normalized against Renilla luciferase activity. All experiments were performed in sextuplicate.

Data set [4] relates to ghrelin receptor. The settings on record: cited from earlier work. The source says: No other peptide hormone is known to require such an acyl-modification for its activity.
For another data set, the system named is ghrelin receptor R102A. As to the kind of experiment: Intracellular Ca2+ concentration assay, R102A. Format: cell-based, human. Conditions: Fig. 4b. As to the method:
(§2) The positions of mutated amino acids and primers are listed in Supplementary Table 2.
(§3) Transfections were performed using the FuGENE HD transfection reagent (Promega). The next day, the transfected cells were collected and plated into 96-well black-wall assay microplates (Corning) at a density of 3 × 10^4 cells/well. After a 1-day incubation, the cells were incubated for 1 h with 100 μl of calcium indicator Fluo-4 from the FLIPR Calcium 5 Assay Kit (Molecular Devices) in Hank’s BSS containing 20 mM HEPES-NaOH (pH7.5) and 2.5 mM probenecid. Fifty-microliter aliquots of samples were tested to induce changes in fluorescence due to increased calcium concentration on a FlexStation3 (Molecular Devices). Maximum [Ca^2+]i changes were determined in quadruplicate (n = 4).

For another data set, the system named is T3, ghrelin receptor F286A.
T3 construct: Full-length human ghrelin receptor was used for the mutagenesis; expressed in transfected cells; host or cells: CHO cells
As to the kind of experiment: Intracellular Ca2+ concentration assay, F286A. Format: cell-based, human. Conditions: Fig. 4f. As to the method: as §2, §3

The test system of the next data set is ghrelin receptor D99A. As to the kind of experiment: Intracellular Ca2+ concentration assay, D99A. Format: cell-based, human. The settings on record: Fig. 4a. As to the method: as §2, §3
For another data set, the system named is ghrelin receptor R283A. As to the kind of experiment: Intracellular Ca2+ concentration assay, R283A. Format: cell-based, human. Conditions: Fig. 4d. As to the method: as §2, §3
The next data set deals with ghrelin receptor E124A. The data set is described as follows: Intracellular Ca2+ concentration assay, E124A. Format: cell-based, human. Conditions: Fig. 4c. The protocol:
as §2, §3

The conditions of data set [5]: peripheral injection; ref [3]; cited from earlier work.
A further data set relates to bRIL-hGHSR. The data set is described as follows: Protein thermostability assay (CPM). Conditions: Compound 21 present in both samples. Format: biochemical, human. As to the method:
The thermal stability analysis was performed with the thiol-specific fluorochrome N-[4-(7-diethylamino-4-methyl-3-coumarinyl)phenyl]maleimide (CPM)[40]. CPM at 4 mg ml^−1 in DMSO was diluted 40-fold into buffer containing 20 mM HEPES-NaOH (pH 7.5), 100 mM NaCl, 0.01% LMNG, and 0.001% CHS. Purified protein (20 µg) was mixed with diluted CPM and incubated on ice for 15 min in darkness. The reaction mixture (20 µl) was heated in a controlled manner with a ramp rate of 3 °C min^−1 in a MyiQ2 thermal cycler (Bio-Rad). […] Assays were performed over a temperature range starting from 4 °C and ending at 80 °C. The peak in the derivative of the fluorescence signal was used to determine the melting temperature.

T1 sequence (Q92847 whole entry): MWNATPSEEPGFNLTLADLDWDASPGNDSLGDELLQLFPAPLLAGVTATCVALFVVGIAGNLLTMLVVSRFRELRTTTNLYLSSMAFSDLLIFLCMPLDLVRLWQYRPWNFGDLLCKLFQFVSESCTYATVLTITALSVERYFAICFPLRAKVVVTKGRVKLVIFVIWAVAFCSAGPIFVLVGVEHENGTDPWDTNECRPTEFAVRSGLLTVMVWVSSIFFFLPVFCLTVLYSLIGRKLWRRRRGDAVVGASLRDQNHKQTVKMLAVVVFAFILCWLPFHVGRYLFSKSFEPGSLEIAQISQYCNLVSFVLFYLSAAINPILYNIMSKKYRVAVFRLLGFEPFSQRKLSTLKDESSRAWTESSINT
T2 sequence (Q92847 whole entry N188Q): as the sequence (Q92847 whole entry) above, with N188Q counted along it

Usually Kd stands for the free concentration of one partner at which half of the binding sites on the other are occupied at equilibrium, for simple one-to-one binding. A higher Kd goes with weaker binding. On to `Cc1nc2ccc(Oc3ccc(Br)cc3F)nc2c(=O)n1CC1CCCN(C(C)C)C1` (centres unmarked) [Compound 21], for which the Kd in data set [1] came to 17.2 ± 7.1 nM; at ghrelin receptor WT, 4.42 ± 0.76 nM. At ghrelin receptor [2], the “interaction seen in crystal structure” value is “forms a hydrogen bond with R283^6.55; also recorded: π–cation interaction with R102^2.63; also recorded: forms hydrophobic interactions with the F279^6.51, F309^7.39, and F312^7.42; also recorded: three hydrophobic contacts with residues I178^4.60, L181^4.63, and M213^5.39”. Moreover, the “effect on constitutive activity” value in [3] is “no effect on the constitutive activity; also recorded: neutral antagonist”.

For n-octanoyl ghrelin, the “potency of ghrelin forms” value with ghrelin receptor [4] (reference not given) is listed as “most potent active form”.

On to des-acyl ghrelin, for which, in the data set on ghrelin receptor [4] (ref [2],[5]), the “activity of ghrelin forms” value was “inactive”.

For the molecule `CCCCCCCC(=O)OC[C@H](NC(=O)[C@H](CO)NC(=O)CN)C(=O)N[C@@H](Cc1ccccc1)C(=O)N[C@@H](CC(C)C)C(=O)N[C@@H](CO)C(=O)N1CCC[C@H]1C(=O)N[C@@H](CCC(=O)O)C(=O)N[C@@H](Cc1c[nH]cn1)C(=O)N[C@@H](CCC(N)=O)C(=O)N[C@@H](CCCNC(=N)N)C(=O)N[C@H](C(=O)N[C@@H](CCC(N)=O)C(=O)N[C@@H](CCC(N)=O)C(=O)N[C@@H](CCCNC(=N)N)C(=O)N[C@@H](CCCCN)C(=O)N[C@@H](CCC(=O)O)C(=O)N[C@@H](CO)C(=O)N[C@@H](CCCCN)C(=O)N[C@@H](CCCCN)C(=O)N1CCC[C@H]1C(=O)N1CCC[C@H]1C(=O)N[C@@H](C)C(=O)N[C@@H](CCCCN)C(=O)N[C@@H](CC(C)C)C(=O)N[C@@H](CCC(N)=O)C(=O)N1CCC[C@H]1C(=O)N[C@@H](CCCNC(=N)N)C(=O)O)C(C)C` [Ghrelin], the “receptor activity” value in the data set on ghrelin receptor R102A and with ghrelin receptor D99A was “abolishes the receptor activity” each time. Also, the “ghrelin-induced receptor activity” value in the data set on ghrelin receptor F286A is recorded as “only slightly lower than that of the WT ghrelin receptor”. For the same molecule, the “ghrelin-induced receptor function” value with ghrelin receptor R283A and with ghrelin receptor E124A was “completely abolished ghrelin-induced receptor function” in each case. In addition, in data set [5], the “appetite” value was “induces appetite stimulation following peripheral injection”.

B1: Fab 7881: Fab fragment antibody specific for the ghrelin receptor, binds ICL3 (antibody, V domains shown)
VH: EVQLQQSGAELVRPGASVKLSCKASGYTFTDYEMHWVKQTPVHGLEWIGAIDPETGGTVYNQKFKGKATLTADISSTTAYMELRSLTSEDSAVYFCISEDIDESKDYWGQGTTLTVSS
VL: DIVMTQSPSSLAVSAGEKVTLSCKSSQSLFNSRTRKNYLAWYQQKPGLSPTLLIYWASTRKSGVPDRFTGSGSGTDFTLTITSVQAEDLAVYYCKQSYYLRTFGGGTKLEIK
In the case of B1, the “interaction seen in crystal structure” value with ghrelin receptor [2] is listed as “binds to intracellular loop 3 (ICL3)”. The “increase of Tm” value in the data set on bRIL-hGHSR was “about 5 °C”.

The values are drawn from article PMC7438500 (Nature Communications, 2020).
